Results taken from patent EP4740948A1 (Dong Wha Pharm. Co., Ltd., priority 2023, dated 2025).

How the values were obtained:
EZH1 = EZH1 (Homo sapiens, UniProt Q92800); assay: AlphaLISA enzyme activity inhibition, EZH1; assay type: biochemical; details: for inhibition at 0.005 µM: 5nM test substance; for inhibition at 0.01 µM: 10nM test substance
Outline: (§1)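 EZH1 or EZH2 was mixed with compound at 5 nM or 10 nM final in 20 mM Tris pH 8.0, 0.1% BSA, 0.5 mM DTT, then histone H3 peptide and SAM were added. After 2 h reaction, AlphaLISA acceptor and donor beads detected methylation; inhibition rate was calculated against DMSO control.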

EZH2 = EZH2 (Homo sapiens, UniProt Q15910); assay: AlphaLISA enzyme activity inhibition, EZH2; assay type: biochemical; details: for inhibition at 0.005 µM: 5nM test substance; for inhibition at 0.01 µM: 10nM test substance
Outline: as §1

Lovo cells = assay: Cancer cell proliferation inhibition (Cell Counting Kit-8), colorectal cancer cell line; assay type: cell-based; details: Homo sapiens, LoVo, 264 h, 1000 nM, cultured seven to 11 days; read-out: % inhibition rate LoVo
Outline: (§2)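 One dose only (1000 nM), 7–11 d exposure, 10% FBS in line-appropriate medium; CCK-8 endpoint, inhibition expressed relative to control.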

G401 cells = assay: Cancer cell proliferation inhibition (Cell Counting Kit-8), rhabdoid tumor cell line; assay type: cell-based; details: Homo sapiens, G-401, 264 h, 1000 nM, cultured seven to 11 days; read-out: % inhibition rate G401
Outline: (§3)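 Cells grown in RPMI1640, McCoy's 5a, L-15 or DMEM with 10% FBS, seeded at 100 to 1,000 cells/well and treated with test substance at 1000 nM for 7 to 11 days. Viability read by CCK-8; % inhibition = {1−(test/control)} × 100.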

MKN-45 cells = assay: Cancer cell proliferation inhibition (Cell Counting Kit-8), gastric cancer cell line; assay type: cell-based; details: Homo sapiens, MKN-45, 264 h, 1000 nM, cultured seven to 11 days; read-out: % inhibition rate MKN -45
Outline: as §3

SW-13 cells = assay: Cancer cell proliferation inhibition (Cell Counting Kit-8), adrenal cancer cell line; assay type: cell-based; details: Homo sapiens, SW13, 264 h, 1000 nM, cultured seven to 11 days; read-out: % inhibition rate SW-13
Outline: as §2

MIA-PaCa-2 cells = assay: Cancer cell proliferation inhibition (Cell Counting Kit-8), pancreatic cancer cell line; assay type: cell-based; details: Homo sapiens, MIA PaCa-2, 264 h, 1000 nM, cultured seven to 11 days; read-out: % inhibition rate MIA-Paca2
Outline: as §2

NCI-H1299 cells = assay: Cancer cell proliferation inhibition (Cell Counting Kit-8), lung cancer cell line; assay type: cell-based; details: Homo sapiens, NCI-H1299, 264 h, 1000 nM, cultured seven to 11 days; read-out: % inhibition rate NCI-H129 9
Outline: as §2

Chain of EZH1 (Q92800 whole entry, species assumed): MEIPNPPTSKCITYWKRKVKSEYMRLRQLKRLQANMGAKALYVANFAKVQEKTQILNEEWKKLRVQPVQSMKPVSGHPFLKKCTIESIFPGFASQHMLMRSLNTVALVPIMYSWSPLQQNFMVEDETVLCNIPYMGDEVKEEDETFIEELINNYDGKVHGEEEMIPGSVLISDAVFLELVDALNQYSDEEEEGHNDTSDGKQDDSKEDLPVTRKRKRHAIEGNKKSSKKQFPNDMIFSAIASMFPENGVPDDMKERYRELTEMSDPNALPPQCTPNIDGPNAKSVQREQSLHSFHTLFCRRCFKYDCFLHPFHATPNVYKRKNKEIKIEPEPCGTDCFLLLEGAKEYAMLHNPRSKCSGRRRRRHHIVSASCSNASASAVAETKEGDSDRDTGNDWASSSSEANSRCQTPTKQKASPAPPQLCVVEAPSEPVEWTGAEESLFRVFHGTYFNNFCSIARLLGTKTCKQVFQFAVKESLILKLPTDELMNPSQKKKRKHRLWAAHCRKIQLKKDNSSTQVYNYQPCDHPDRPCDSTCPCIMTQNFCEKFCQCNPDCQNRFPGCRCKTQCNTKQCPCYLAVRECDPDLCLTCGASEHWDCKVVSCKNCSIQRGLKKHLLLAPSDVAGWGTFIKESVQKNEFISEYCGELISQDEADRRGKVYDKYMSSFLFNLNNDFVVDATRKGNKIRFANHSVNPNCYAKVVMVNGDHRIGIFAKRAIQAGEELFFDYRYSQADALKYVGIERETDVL
Chain of EZH1 (O75530 whole entry partner, species assumed): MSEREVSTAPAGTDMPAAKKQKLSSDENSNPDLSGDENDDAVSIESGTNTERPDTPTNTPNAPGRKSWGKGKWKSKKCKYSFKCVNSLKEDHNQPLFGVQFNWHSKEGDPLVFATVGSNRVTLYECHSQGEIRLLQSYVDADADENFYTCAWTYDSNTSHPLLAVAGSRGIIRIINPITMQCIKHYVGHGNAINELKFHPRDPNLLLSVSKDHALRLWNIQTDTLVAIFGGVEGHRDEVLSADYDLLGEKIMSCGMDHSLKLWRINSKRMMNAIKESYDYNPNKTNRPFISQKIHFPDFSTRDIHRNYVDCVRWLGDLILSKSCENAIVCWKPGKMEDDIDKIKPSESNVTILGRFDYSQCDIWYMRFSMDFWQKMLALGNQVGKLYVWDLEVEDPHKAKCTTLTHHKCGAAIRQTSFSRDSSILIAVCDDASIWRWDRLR
Chain of EZH1 (Q15022 whole entry partner, species assumed): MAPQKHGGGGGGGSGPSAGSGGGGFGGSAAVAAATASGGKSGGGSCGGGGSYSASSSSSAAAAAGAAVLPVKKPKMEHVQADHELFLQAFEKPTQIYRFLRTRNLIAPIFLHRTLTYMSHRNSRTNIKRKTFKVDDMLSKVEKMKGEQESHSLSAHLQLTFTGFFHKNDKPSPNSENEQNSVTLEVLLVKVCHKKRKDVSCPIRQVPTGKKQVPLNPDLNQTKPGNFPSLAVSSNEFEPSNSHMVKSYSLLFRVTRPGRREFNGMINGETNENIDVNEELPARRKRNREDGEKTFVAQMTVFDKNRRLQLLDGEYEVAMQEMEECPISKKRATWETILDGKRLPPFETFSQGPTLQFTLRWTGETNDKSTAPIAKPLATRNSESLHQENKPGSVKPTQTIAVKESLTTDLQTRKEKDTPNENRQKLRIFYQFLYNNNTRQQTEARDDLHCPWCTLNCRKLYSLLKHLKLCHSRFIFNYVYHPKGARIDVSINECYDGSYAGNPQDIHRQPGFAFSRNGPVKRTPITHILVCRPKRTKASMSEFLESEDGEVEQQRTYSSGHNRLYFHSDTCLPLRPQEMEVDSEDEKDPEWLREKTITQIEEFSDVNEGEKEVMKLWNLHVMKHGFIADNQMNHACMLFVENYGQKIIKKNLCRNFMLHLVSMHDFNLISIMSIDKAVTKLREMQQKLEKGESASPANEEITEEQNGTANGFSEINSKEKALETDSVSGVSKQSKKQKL
Chain of EZH2 (Q15910 whole entry, species assumed): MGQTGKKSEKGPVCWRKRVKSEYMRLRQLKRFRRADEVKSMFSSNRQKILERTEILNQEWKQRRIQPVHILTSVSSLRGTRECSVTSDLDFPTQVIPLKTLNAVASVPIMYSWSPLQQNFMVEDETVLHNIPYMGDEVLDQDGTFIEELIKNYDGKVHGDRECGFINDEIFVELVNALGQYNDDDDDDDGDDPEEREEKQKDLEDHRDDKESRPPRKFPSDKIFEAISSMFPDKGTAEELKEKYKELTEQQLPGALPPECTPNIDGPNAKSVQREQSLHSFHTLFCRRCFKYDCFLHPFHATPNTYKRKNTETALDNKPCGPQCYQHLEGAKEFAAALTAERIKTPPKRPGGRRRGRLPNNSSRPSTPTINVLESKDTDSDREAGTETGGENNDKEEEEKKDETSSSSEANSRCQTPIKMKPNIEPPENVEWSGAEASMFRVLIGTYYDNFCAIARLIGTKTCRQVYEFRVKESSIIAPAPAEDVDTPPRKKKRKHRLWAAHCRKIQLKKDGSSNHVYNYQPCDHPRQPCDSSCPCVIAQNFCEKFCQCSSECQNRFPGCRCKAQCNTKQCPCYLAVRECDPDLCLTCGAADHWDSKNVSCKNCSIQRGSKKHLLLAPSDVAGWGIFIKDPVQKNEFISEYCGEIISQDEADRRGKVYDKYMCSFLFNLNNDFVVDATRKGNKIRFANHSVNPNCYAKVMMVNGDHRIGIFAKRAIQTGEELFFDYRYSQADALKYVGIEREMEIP
Chain of EZH2 (O75530 whole entry partner, species assumed): as the sequence (O75530 whole entry partner, species assumed) above
Chain of EZH2 (Q15022 whole entry partner, species assumed): as the sequence (Q15022 whole entry partner, species assumed) above

Row | SMILES | inhibition at 0.005 µM (EZH1) | inhibition at 0.005 µM (EZH2) | inhibition at 0.01 µM (EZH1) | inhibition at 0.01 µM (EZH2) | inhibition at 1 µM (Lovo cells) | inhibition at 1 µM (G401 cells) | inhibition at 1 µM (MKN-45 cells) | inhibition at 1 µM (SW-13 cells) | inhibition at 1 µM (MIA-PaCa-2 cells) | inhibition at 1 µM (NCI-H1299 cells)
1 | CSc1cc(C)[nH]c(=O)c1CNC(=O)c1cc(-c2cnc(N(C)C)nc2)c2c(c1C)OC(C)(C1CCN(CC(F)(F)F)CC1)O2 (centres unmarked) [Compound 35, 7-(2-(dimethylamino)pyrimidin-5-yl)-2,4-dimethyl-N-((6-methyl-4-(methylthio)-2-oxo-1,2-dihydropyridin-3-yl)methyl)-2-(1-(2,2,2-trifluoroethyl)piperidin-4-yl)benzo[d][1,3]dioxole-5-carboxamide] | 67.7% | 94% | – | – | ≥ 70% | ≥ 70% | ≤ 30% | ≤ 30% | ≤ 30% | ≤ 30%
2 | CSc1cc(C)[nH]c(=O)c1CNC(=O)c1cc(-c2ccc(N3C[C@@H](C)O[C@@H](C)C3)nc2)c2c(c1C)OC(C)([C@H]1CC[C@H](N(C)C)CC1)O2 (stereo partly drawn) [Compound 1, 2-(trans-4-(dimethylamino)cyclohexyl)-7-(6-((2S,6R)-2,6-dimethylmorpholino)pyridin-3-yl)-2,4-dimethyl-N-((6-methyl-4-(methylthio)-2-oxo-1,2-dihydropyridin-3-yl)methyl)benzo[d][1,3]dioxole-5-carboxamide] | 89.1% | 98.7% | – | – | 30 to 70% | 30 to 70% | ≤ 30% | 30 to 70% | ≤ 30% | ≤ 30%
3 | COc1ccc(F)cc1-c1cc(C(=O)NCc2c(SC)cc(C)[nH]c2=O)c(C)c2c1OC(C)(C1CCC(N(C)C)CC1)O2 (centres unmarked) [Compound 43, 2-(4-(dimethylamino)cyclohexyl)-7-(5-fluoro-2-methoxyphenyl)-2,4-dimethyl-N-((6-methyl-4-(methylthio)-2-oxo-1,2-dihydropyridin-3-yl)methyl)benzo[d][1,3]dioxole-5-carboxamide] | 65.6% | 94.6% | – | – | ≥ 70% | ≥ 70% | 30 to 70% | ≤ 30% | ≤ 30% | 30 to 70%

Now from value to molecule, other results behind:

Row | inhibition at 0.005 µM (EZH1) | inhibition at 0.005 µM (EZH2) | inhibition at 0.01 µM (EZH1) | inhibition at 0.01 µM (EZH2) | SMILES | inhibition at 1 µM (Lovo cells) | inhibition at 1 µM (G401 cells) | inhibition at 1 µM (MKN-45 cells) | inhibition at 1 µM (SW-13 cells) | inhibition at 1 µM (MIA-PaCa-2 cells) | inhibition at 1 µM (NCI-H1299 cells)
4 | 44.7% | 59.2% | 63% | 84% | CSc1cc(C)[nH]c(=O)c1CNC(=O)c1cc(-c2ccc(N3C[C@@H](C)O[C@@H](C)C3)nc2)c2c(c1C)OC(C)(C1CCN(CC(F)F)CC1)O2 (stereo partly drawn) [Compound 46, 2-(1-(2,2-difluoroethyl)piperidin-4-yl)-7-(6-((2S,6R)-2,6-dimethylmorpholino)pyridin-3-yl)-2,4-dimethyl-N-((6-methyl-4-(methylthio)-2-oxo-1,2-dihydropyridin-3-yl)methyl)benzo[d][1,3]dioxole-5-carboxamide] | ≥ 70% | ≥ 70% | 30 to 70% | 30 to 70% | ≤ 30% | 30 to 70%
5 | 53% | 86.5% | 78.2% | 99.4% | CSc1cc(C)[nH]c(=O)c1CNC(=O)c1cc(-c2ccc(N3CCOCC3)nc2)c2c(c1C)OC(C)(C1CCN(CC(F)(F)F)CC1)O2 (centres unmarked) [Compound 61, 2,4-dimethyl-N-((6-methyl-4-(methylthio)-2-oxo-1,2-dihydropyridin-3-yl)methyl)-7-(6-morpholinopyridin-3-yl)-2-(1-(2,2,2-trifluoro)piperidin-4-yl)benzo[d][1,3]dioxole-5-carboxamide] | ≥ 70% | ≥ 70% | 30 to 70% | ≤ 30% | ≤ 30% | 30 to 70%
